Test results taken from a compilation of properties of binary mixtures (doi:10.1016/j.molliq.2019.03.144).

Test: xn = mol fraction of the nth substance listed
Settings: 96.7 kPa

CC(=O)[O-].CC[n+]1ccn(C)c1 + c1ccncc1
viscosity [mPa·s]
Settings | x1 = 0.166 | x1 = 0.318 | x1 = 0.411 | x1 = 0.52 | x1 = 0.649 | x1 = 0.806 | x1 = 0.898 | x1 = 1
303.15 K | 2.54 | 5.96 | – | 15.7 | 27.5 | 51 | 72.6 | 103.2
308.15 K | – | 5.29 | 8.29 | – | 22.7 | – | – | 76.1
313.15 K | 2.12 | 4.72 | 7.27 | 11.55 | 19 | 33.1 | 44.7 | 59.6
318.15 K | 1.95 | 4.22 | 6.42 | 9.99 | 16.09 | 27 | 36 | 47.4
323.15 K | 1.797 | 3.82 | 5.71 | – | 13.77 | 22.7 | – | 38.4
328.15 K | 1.671 | – | 5.11 | 7.68 | 11.88 | – | 24.5 | 31.5
333.15 K | 1.552 | – | 4.6 | 6.82 | – | 16.33 | 20.6 | –
338.15 K | 1.453 | – | 4.16 | 6.09 | 9.11 | 14.04 | 17.63 | 22
343.15 K | – | 2.65 | – | 5.47 | – | 12.35 | 15.11 | –
348.15 K | 1.278 | 2.45 | 3.46 | 4.96 | 7.18 | 10.77 | 13.26 | 16.25
353.15 K | 1.203 | – | 3.18 | 4.48 | 6.45 | 9.52 | 11.59 | 14.03

c1ccncc1 + CC(=O)[O-].CC[n+]1ccn(C)c1
x2 = 0
Settings | viscosity [mPa·s]
303.15 K | 0.843
313.15 K | 0.741
323.15 K | 0.658
333.15 K | 0.59
343.15 K | 0.533
353.15 K | 0.485
